# In US12630523B2, “Isoquinoline derivatives for use as antiviral and antitumour agents” (priority 2021, dated 2026):
# How the values were obtained:
# [1] = tested on: patient derived SARS-2 Coronavirus (COVID19); assay: Inhibition of Sars-CoV2 replication by RNA qPCR analysis in Vero E6 cells; type: cell-based, SARS-CoV-2; details: 7.5 μM, supernatants 3 days after infection, n3
# Procedure: Vero E6 cells were pre-incubated with the compounds at a concentration of 7.5 μM. The cells were infected with a patient derived SARS-2 Coronavirus (COVID19). Cellular supernatants were collected 3 days after infection and centrifuged at 2000 rpm for 5 min to remove detached cells. Viral RNAs were extracted using a MagNA Pure 24 system (Roche, Germany). SARS-CoV-2 RNA genomes were quantified with the TIB MOLBIOL LightMix Assay SARS-CoV-2 RdRP RTqPCR assay kit with RNA Process Control PCR Kit (Roche). The PCR reaction setup was performed using a BRAND LHS laboratory robot to ensure quality. The amplification was performed with a LightCycler 480 II (Roche). Method used in FIG. 10.
# SARV-CoV-2 antiviral activity by of VSP034 and VSP035 (n3; number of repeat of the assay at each condition). The results are shown in for DMSO (1), 7.5 μM VSP034 (2) and 7.5 μM VSP035 (3), y axis logarithmic scale. […] (FIG. 9)
# [2] = tested on: SARS-CoV-2; assay: SARS-CoV-2/Huh7-EGFP HTS antiviral Assay (96-well); type: cell-based; details: Severe acute respiratory syndrome coronavirus 2, Huh-7; sublethal dose of 10 μM, Huh7, n4
# [3] = tested on: HPV16 E7 protein; assay: Western blot of E7 steady state level in CaSki cells; type: cell-based; details: 10 μM, up to 24 hours
# Procedure: B) For cells in cell culture the following procedure for the preparation of a total cell extract is used. Freshly seeded cells are grown for 24 hours to obtain 65-75% confluency (corresponds for CaSki cells to a plating of approx. 2×10^6 cells/10 cm Ø cell culture dish). Cell culture dishes with medium are out on ice for 5 minutes.
# Lysed cells are scraped off the dish and transfers to microcentrifuge tubes, followed by 2×10 sec sonication to complete cell lysis at room temperature. The samples are heated at 96° C. for 10 min and centrifuged for 5 min at 12000 g at room temperature.
# Endogenous E7 proteins are rigid, tightly folded molecules and are bound only transiently onto […] membranes during protein blotting procedures, in particular employing semidry methods. Thus, for protein blotting a buffer system containing 40% (v/v) of Methanol is used. These buffers tend to be unstable and therefore freshly prepared solutions need to be used. E7 antibodies are used in TBET at pH7.8. Under these conditions western blot transfer is not complete for most other proteins. If staining of different proteins of the same gel is done, the gel is divided prior to blotting, 40% Methanol is used in the transfer buffer for E7 and a transfer buffer containing 20% Methanol is used for most of the other markers. […]
# [4] = Pharmacokinetics of OC246 after single oral administration; type: in vivo, female NMRI mice; details: single oral 50 mg/kg
# Procedure: Pharmacokinetics were assessed for OC246 after single oral (p.o.) administration in female NMRI mice. The compound OC246 was suspended at 50 mg/kg with Lipoid S100 and Myritol 318. Oral dose was 50 mg/kg, Final Concentration 10 mg/ml and Administration Volume 5.0 ml/kg. Blood samples were taken from three mice at individual time points after 0.25, 0.5, 1, 2, 4, 6, 8, 16, and 24 hours from administration, and analyzed using HPLC and mass-spectroscopic bioanalytical methods.
# obs: observed; tmax: time point at Cmax; tlast: time at last quantifiable concentration; Cmax: maximum observed concentration; Clast: last quantifiable concentration; SE: standard error; AUClast: area under the concentration-time curve (AUC) calculated with trapezoidal rule between dosing time to the last measurement time point with a conc. value above the lower limit of quantification; AUCinf(obs): AUC calculated using the trapezoidal rule from 0 hours to infinity; AUC % extrapol: percentage of AUCinf(obs) that is due to the extrapolation from tlast to infinity; Rsq: goodness of fit for the determination λz in the terminal elimination phase; λz(Lambda_z): terminal elimination rate constant (of at least three last measured concentrations); t1/2: apparent terminal elimination half-life; CLobs: observed total (systemic) body clearance; Vz_obs: apparent volume of distribution based on AUClast and λz.
# [5] = tested on: SiHa (ATCC HTB-35); assay: Monolayer SRB assay, SiHa; type: cell-based; details: Homo sapiens, 72 hrs, HPV16
# Procedure: (§1) Various cell culture cells grown as monolayers are harvested from exponential growing cultures after treatment with various OC compounds at different concentrations. For this depending on the cell line, 10.000 to 30.000 cells were plated in 96-well flat-bottom microtiter plates. After a 24 h recovery period to allow cells to resume exponential growth, supernatants are discarded and 100 μl of culture medium (eight control wells/plate) or culture medium with the test compound are added by a liquid handling robotic system (Microlab® Starlet, Hamilton) and treatment continued for 72 hrs. Compounds are applied at 9 concentrations and eight wells/concentration). At least three independent experiments are performed. For SRB staining, cells are fixed with SRB01 (Tab. 5) for 1 h at 4° C. […] Optical density is assessed using a plate-reader (Sunrise, Tecan©) at 540 nm.
# (§2) Concentrations required for half maximal response of the compound for cell growth inhibition (EC50) is calculated by non-linear regression (log[conc. of inhibitor] versus response (% T/C)) using the analysis software GraphPad Prism®, Prism 5 for windows, version 5.01 (GraphPad Software Inc., CA).
# [6] = tested on: peripheral blood mononuclear cells (PBMC); assay: Monolayer SRB assay, PBMC; type: cell-based
# Procedure: as §1, §2
# [7] = female, NMRI, mouse, blood, mean
Structure (SMILES),reduction of virus load as determined by the PCR assay [1],inhibition at 10 µM [2],"HPV16 E7 protein level, time course [3]","HPV16 E7 protein level, time course ([3]; listed as Vsp035)","half-life ([4]; female, NMRI, mouse, blood)","Tmax ([4]; female, NMRI, mouse, blood, Lipoid S100 and Myritol 318, mean)","AUC(0-t) [4, 7]","Cmax [4, 7]","AUC(0-inf) ([4]; female, NMRI, mouse, blood, mean, read-out: AUCinf(obs))","concentration at 24 h ([4]; female, NMRI, mouse, blood, mean, read-out: Clast)",AUC% extrapol (obs) [4],CLobs [4],Vz_obs [4],λz (terminal elimination rate constant) [4],tlast ([4]; mean),EC50 [5],EC50 [6]
"CN1CCC(CN2C(=O)c3ccccc3[C@H](C(=O)Nc3cccc(N4CCN(C)CC4)c3)[C@H]2c2ccc(C(F)(F)F)cc2)CC1 [VSP035, (3S,4S)-N-[3-(4-methylpiperazin-1-yl)phenyl]-2-[(1-methylpiperidin-4-yl)methyl]-1-oxo-3-[4-(trifluoromethyl)phenyl]-1,2,3,4-tetrahydroisoquinoline-4-carboxamide]",one order of magnitude,72 ± 7.7%,steady decline over time,stable e7 reduction,–,–,–,–,–,–,–,–,–,–,–,–,–
"Cc1ccc(CN2C(=O)c3ccccc3[C@H](C(=O)Nc3cccc(N4CCN(C)CC4)c3)[C@@H]2c2ccc(C(F)(F)F)cc2)cc1 [OC246, N-[3-(4-methylpiperazin-1-yl)phenyl]-2-[(4-methylphenyl)methyl]-1-oxo-3-[4-(trifluoromethyl)phenyl]-1,2,3,4-tetrahydroisoquinoline-4-carboxamide]",–,–,–,–,2.25 h,2 h,11500 ng·h/mL,1740 ng/mL,11500 ng·h/mL,5.18 ng/mL,0.146%,72.38 mL/min/kg,14.073 L/kg,0.309 h⁻¹,24.00 h,3.53 µM,> 100 µM
